Data published in ChEMBL document CHEMBL3885861, “Open TG-GATES”.

Species: Rattus norvegicus
Experiment: Open TG-GATES - Regimen: Single
Type: toxicity, organism-based, Sprague-Dawley
Set-up: regimen Single, gender Male, age 6 weeks
Settings: in vivo, po, 25 mg/kg, route gavage, dose level Middle; for APTT / Bas / Eos / Fbg / Hb / Ht / Lym / MCH / MCHC / MCV / Mono / Neu / PT / Plat / RBC / Ret / WBC: tissue Blood; for KIDNEY_L / KIDNEY_R / KIDNEY_TOTAL: tissue Kidney; for LIVER: tissue Liver; for A/G / ALP / ALT / AST / BUN / CRE / Ca / Cl / DBIL / GLC / IP / K / LDH / Na / PL / RALB / TBIL / TC / TG / TP / gamma-GTP: tissue Plasma

NC1=NC(=O)C(c2ccccc2)O1 (configuration not stated) [PEMOLINE] gave a TERMINAL_BW (3 h) of 210.1 g, an APTT (3 h) of 15.6 s and a Bas (3 h) of 0%. For the same molecule, the Eos (3 h) was 1%, the Fbg (3 h) was 280.4 mg/dL and the Hb (3 h) was 13.5 g/dL. It also gave a Ht (3 h) of 39.8%, a Lym (3 h) of 74.2% and an MCH (3 h) of 21.3 pg. For the same molecule, the MCHC (3 h) was 33.8%, the MCV (3 h) was 62.9 fL and the Mono (3 h) was 3.8%. For the same molecule, the Neu (3 h) was 20.6%, the PT (3 h) was 13.1 s and the Plat (3 h) was 115 x10_4/uL. For the same molecule, the RBC (3 h) was 633.2 x10_4/ul, the Ret (3 h) was 8.8% and the WBC (3 h) was 86.4 x10_2/uL. It also gave a KIDNEY_L (3 h) of 0.9 g, a KIDNEY_R (3 h) of 0.9 g and a KIDNEY_TOTAL (3 h) of 1.8 g. For the same molecule, the LIVER (3 h) was 9.3 g, the A/G (3 h) was 1 and the ALP (3 h) was 1568.2 IU/L. For the same molecule, the ALT (3 h) was 42.6 IU/L, the AST (3 h) was 86 IU/L and the BUN (3 h) was 8.2 mg/dL. It also gave a CRE (3 h) of 0.2 mg/dL, a Ca (3 h) of 10.5 mg/dL and a Cl (3 h) of 106.4 meq/L. For the same molecule, the DBIL (3 h) was 0.01 mg/dL, the GLC (3 h) was 185.2 mg/dL and the IP (3 h) was 8.5 mg/dL. It also gave a K (3 h) of 3.8 meq/L, an LDH (3 h) of 104 IU/L and a Na (3 h) of 140.4 meq/L. The PL (3 h) was 122.4 mg/dL, the RALB (3 h) was 2.7 g/dL and the TBIL (3 h) was 0.044 mg/dL. It also gave a TC (3 h) of 72.4 mg/dL, a TG (3 h) of 39.6 mg/dL and a TP (3 h) of 5.4 g/dL. It also gave a gamma-GTP (3 h) of 1.4 IU/L, a TERMINAL_BW (6 h) of 209.6 g and an APTT (6 h) of 17.7 s. It also gave a Bas (6 h) of 0.2%, an Eos (6 h) of 1% and a Fbg (6 h) of 316.4 mg/dL. For the same molecule, the Hb (6 h) was 13.6 g/dL, the Ht (6 h) was 40% and the Lym (6 h) was 72.2%. The MCH (6 h) was 21.7 pg, the MCHC (6 h) was 34% and the MCV (6 h) was 63.7 fL. For the same molecule, the Mono (6 h) was 2.6%, the Neu (6 h) was 23.6% and the PT (6 h) was 13.4 s. For the same molecule, the Plat (6 h) was 122.6 x10_4/uL, the RBC (6 h) was 629.6 x10_4/ul and the Ret (6 h) was 9.8%. The WBC (6 h) was 101.7 x10_2/uL, the KIDNEY_L (6 h) was 0.9 g and the KIDNEY_R (6 h) was 0.9 g. It also gave a KIDNEY_TOTAL (6 h) of 1.8 g, an LIVER (6 h) of 8.2 g and an A/G (6 h) of 1. It also gave an ALP (6 h) of 1568 IU/L, an ALT (6 h) of 44 IU/L and an AST (6 h) of 81.8 IU/L. The BUN (6 h) was 7 mg/dL, the CRE (6 h) was 0.2 mg/dL and the Ca (6 h) was 10.4 mg/dL. It also gave a Cl (6 h) of 108.2 meq/L, a DBIL (6 h) of 0.01 mg/dL and a GLC (6 h) of 179.2 mg/dL. The IP (6 h) was 9.4 mg/dL, the K (6 h) was 3.5 meq/L and the LDH (6 h) was 67.6 IU/L. It also gave a Na (6 h) of 140.8 meq/L, a PL (6 h) of 121.4 mg/dL and an RALB (6 h) of 2.8 g/dL. It also gave a TBIL (6 h) of 0.052 mg/dL, a TC (6 h) of 77 mg/dL and a TG (6 h) of 15.2 mg/dL. The TP (6 h) was 5.5 g/dL, the gamma-GTP (6 h) was 1 IU/L and the TERMINAL_BW (9 h) was 212 g. The APTT (9 h) was 16 s, the Bas (9 h) was 0% and the Eos (9 h) was 0.6%. It also gave a Fbg (9 h) of 316.2 mg/dL, a Hb (9 h) of 13.7 g/dL and a Ht (9 h) of 40.4%. It also gave a Lym (9 h) of 75.2%, an MCH (9 h) of 21.7 pg and an MCHC (9 h) of 33.8%. It also gave an MCV (9 h) of 64.2 fL, a Mono (9 h) of 2.4% and a Neu (9 h) of 21.2%. For the same molecule, the PT (9 h) was 13.4 s, the Plat (9 h) was 112 x10_4/uL and the RBC (9 h) was 630.8 x10_4/ul. The Ret (9 h) was 9.7%, the WBC (9 h) was 91.7 x10_2/uL and the KIDNEY_L (9 h) was 0.9 g. The KIDNEY_R (9 h) was 0.9 g, the KIDNEY_TOTAL (9 h) was 1.7 g and the LIVER (9 h) was 8.1 g. The A/G (9 h) was 1, the ALP (9 h) was 1640.8 IU/L and the ALT (9 h) was 40.2 IU/L. It also gave an AST (9 h) of 83.4 IU/L, a BUN (9 h) of 8.6 mg/dL and a CRE (9 h) of 0.2 mg/dL. It also gave a Ca (9 h) of 10.6 mg/dL, a Cl (9 h) of 106.4 meq/L and a DBIL (9 h) of 0.014 mg/dL. For the same molecule, the GLC (9 h) was 191.6 mg/dL, the IP (9 h) was 9.7 mg/dL and the K (9 h) was 3.8 meq/L. It also gave an LDH (9 h) of 94.4 IU/L, a Na (9 h) of 141.4 meq/L and a PL (9 h) of 137 mg/dL. For the same molecule, the RALB (9 h) was 2.8 g/dL, the TBIL (9 h) was 0.044 mg/dL and the TC (9 h) was 86.8 mg/dL. The TG (9 h) was 27.2 mg/dL, the TP (9 h) was 5.6 g/dL and the gamma-GTP (9 h) was 1.4 IU/L. For the same molecule, the TERMINAL_BW (24 h) was 209.6 g, the APTT (24 h) was 16.3 s and the Bas (24 h) was 0%. For the same molecule, the Eos (24 h) was 1%, the Fbg (24 h) was 290 mg/dL and the Hb (24 h) was 12.9 g/dL. It also gave a Ht (24 h) of 37.6%, a Lym (24 h) of 80.4% and an MCH (24 h) of 21.9 pg. It also gave an MCHC (24 h) of 34.3%, an MCV (24 h) of 63.7 fL and a Mono (24 h) of 3.6%. For the same molecule, the Neu (24 h) was 14.4%, the PT (24 h) was 13 s and the Plat (24 h) was 107.2 x10_4/uL. It also gave an RBC (24 h) of 589 x10_4/ul, a Ret (24 h) of 8.2% and a WBC (24 h) of 73.1 x10_2/uL. For the same molecule, the KIDNEY_L (24 h) was 0.9 g, the KIDNEY_R (24 h) was 0.9 g and the KIDNEY_TOTAL (24 h) was 1.8 g. It also gave an LIVER (24 h) of 9.3 g, an A/G (24 h) of 1 and an ALP (24 h) of 1533.8 IU/L. For the same molecule, the ALT (24 h) was 46.6 IU/L, the AST (24 h) was 87.8 IU/L and the BUN (24 h) was 15.4 mg/dL. For the same molecule, the CRE (24 h) was 0.2 mg/dL, the Ca (24 h) was 10.6 mg/dL and the Cl (24 h) was 104.4 meq/L. The DBIL (24 h) was 0.014 mg/dL, the GLC (24 h) was 176.8 mg/dL and the IP (24 h) was 8.8 mg/dL. It also gave a K (24 h) of 4.2 meq/L, an LDH (24 h) of 71.6 IU/L and a Na (24 h) of 140.6 meq/L. For the same molecule, the PL (24 h) was 128.2 mg/dL, the RALB (24 h) was 2.7 g/dL and the TBIL (24 h) was 0.032 mg/dL. The TC (24 h) was 78 mg/dL, the TG (24 h) was 50 mg/dL and the TP (24 h) was 5.4 g/dL. It also gave a gamma-GTP (24 h) of 1 IU/L.
